Laboratory results from publication PMC11510563 (Pharmaceutics, 2024).

The compounds below were run against T1, oxytocin receptors (Homo sapiens, UniProt P30559) (assay: calcium fluorimetry reporter assay in Hs 578T cells). Conditions: Fluo-4, L-368,899 0.1-10 μM, SR 49059 0.1 μM, tolvaptan 1 nM.
T1 construct: endogenous in cells; host or cells: Hs 578T breast cancer cells
T1 sequence (P30559 1-389): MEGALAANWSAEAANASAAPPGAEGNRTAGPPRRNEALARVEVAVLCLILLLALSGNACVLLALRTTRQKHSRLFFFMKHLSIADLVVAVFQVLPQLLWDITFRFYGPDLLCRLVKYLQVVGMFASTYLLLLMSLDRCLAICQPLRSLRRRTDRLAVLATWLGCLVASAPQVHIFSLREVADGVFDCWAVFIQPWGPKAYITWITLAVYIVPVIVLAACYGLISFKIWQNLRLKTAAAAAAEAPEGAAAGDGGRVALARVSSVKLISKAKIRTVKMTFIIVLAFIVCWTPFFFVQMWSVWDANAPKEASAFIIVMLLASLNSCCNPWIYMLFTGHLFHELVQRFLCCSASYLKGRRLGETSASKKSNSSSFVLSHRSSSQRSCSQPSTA
Type: cell-based
Method: Twenty-four hours prior to use, Hs 578T cells were seeded in black 96-well plates (80,000 cells in 100 μL of supplemented DMEM per well). On the test day, changes in intracellular calcium ([Ca^2+]i) were measured using a Fluo-4 no wash calcium assay kit (F36206; Thermo Fisher Scientific). Briefly, medium was aspirated and replaced with 100 μL of 1× dye loading solution (Fluo-4 NW mix in 1× HBSS) containing 20 mM 4-(2-hydroxyethyl)-1piperazineethanesulfonic acid (HEPES, Sigma-Aldrich) and 2.5 mM probenecid, which prevents the active transport of Fluo-4 out of the cells. Cells were incubated for 40 min, and then mean fluorescence across each well was measured every 1.6 s for 90 s using a Flexstation 3 (Molecular Devices, Wokingham, UK) with excitation at 485 nm and emission at 525 nm.

| SMILES | sensitivity of oxytocin-induced [Ca^2+]i increases to the antagonist |
| --- | --- |
| Cc1ccccc1C(=O)Nc1ccc(C(=O)N2CCCC(O)c3cc(Cl)ccc32)c(C)c1 (stereo not drawn) [tolvaptan] | not sensitive |
| COc1ccc(S(=O)(=O)N2c3ccc(Cl)cc3[C@](O)(c3ccccc3Cl)[C@@H]2C(=O)N2CCC[C@H]2C(N)=O)cc1OC [SR 49059] | not sensitive |
| Cc1ccccc1N1CCN(S(=O)(=O)C[C@]23CC[C@H](C[C@@H]2NC(=O)[C@@H](N)CCS(C)(=O)=O)C3(C)C)CC1 [L-368,899] | sensitive to blockade |
